What all share (assay): relative viability (nuclei count vs DMSO), 5 days (fraction); higher = more cells survive
Compound in assay [1]: CN(C)C[C@@H]1CCn2cc(c3ccccc32)C2=C(C(=O)NC2=O)c2cn(c3ccccc23)CCO1 [Ruboxistaurin]
In a few lines:
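Lung cancer cell lines received five library-drug doses (not always all listed) spaced by √10, pinned on vehicle-anchored 1536-well plates after an overnight stay at 37 °C. Five days later, with no medium change, nuclei were Hoechst-stained, imaged at 4× and counted with MetaXpress. Viability is treated-well nuclei relative to vehicle-well nuclei, as a median across plates. Passing plates had control CV below 25% and at least one doubling.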

Compound in assay [2]: CN(C)C[C@@H]1CCn2cc(c3ccccc32)C2=C(C(=O)NC2=O)c2cn(c3ccccc23)CCO1 [Ruboxistaurin] + CS(=O)(=O)CCNCc1ccc(-c2ccc3ncnc(Nc4ccc(OCc5cccc(F)c5)c(Cl)c4)c3c2)o1 [Lapatinib] (partner 2 µM)
A digest of the protocol:
(§1)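 One day after seeding in 1536-well plates, lung cancer cell lines were dosed by pin tool. Dosing was either single-drug or a fixed anchor-drug dose plus five library-drug doses (not always all listed) in √10 steps. After 5 days, nuclei were stained in one fix-and-stain step and counted on 4× images, and relative viability is the nuclei count of treated wells over that of vehicle wells, given as the median of duplicate plates.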

Compound in assay [3]: CN(C)C[C@@H]1CCn2cc(c3ccccc32)C2=C(C(=O)NC2=O)c2cn(c3ccccc23)CCO1 [Ruboxistaurin] + NC(=O)Nc1cc(-c2cccc(F)c2)sc1C(=O)N[C@H]1CCCNC1 [AZD7762] (partner 0.2 µM)
In a few lines:
as §1

Compound in assay [4]: CN(C)C[C@@H]1CCn2cc(c3ccccc32)C2=C(C(=O)NC2=O)c2cn(c3ccccc23)CCO1 [Ruboxistaurin] + O=C(CCCCCCC(=O)Nc1ccccc1)NO [Vorinostat] (partner 1 µM)
In a few lines: as §1

Compound in assay [5]: CN(C)C[C@@H]1CCn2cc(c3ccccc32)C2=C(C(=O)NC2=O)c2cn(c3ccccc23)CCO1 [Ruboxistaurin] + CC(=O)Nc1cccc(-n2c(=O)n(C3CC3)c(=O)c3c(Nc4ccc(I)cc4F)n(C)c(=O)c(C)c32)c1 [Trametinib] (partner 0.02 µM)
A digest of the protocol:
as §1

Turning to NCI-H1355, the relative viability stood at 1.05 in assay [1] (0.08 µM); 0.882 in assay [1] (0.8 µM); 0.971 in assay [1] (2.53 µM); 0.944 in assay [1] (8 µM); 1.06 in assay [2] (first compound 0.08 µM); 0.916 in assay [2] (first compound 0.8 µM). The relative viability turned out to be 0.933 in assay [2] (first compound 2.53 µM); 0.814 in assay [2] (first compound 8 µM); 0.901 in assay [3] (first compound 0.08 µM); 0.615 in assay [3] (first compound 0.8 µM); 0.709 in assay [3] (first compound 2.53 µM); 0.576 in assay [3] (first compound 8 µM). For the same cell line, the relative viability in assay [4] (first compound 0.08 µM) was determined as 0.693; in assay [4] (first compound 0.8 µM), 0.604; in assay [4] (first compound 2.53 µM) it was 0.62; in assay [4] (first compound 8 µM), 0.583; in assay [5] (first compound 0.08 µM), 0.462; in assay [5] (first compound 0.8 µM), 0.361. For the same cell line, the figures for the relative viability in assay [5] (first compound 2.53 µM) and in assay [5] (first compound 8 µM) were 0.394 and 0.357, respectively.

NCI-H460: the relative viability in assay [1] (0.08 µM) is 1.01; in assay [1] (0.8 µM), 0.98; in assay [1] (2.53 µM), 1.04; in assay [1] (8 µM), 1.02; in assay [2] (first compound 0.08 µM) it was 1.03; in assay [2] (first compound 0.8 µM), 0.966. Further, the relative viability in assay [2] (first compound 2.53 µM) was 1.02; in assay [2] (first compound 8 µM), 1.01; in assay [3] (first compound 0.08 µM), 0.652; in assay [3] (first compound 0.8 µM) it was 0.669; in assay [3] (first compound 2.53 µM), 0.751; in assay [3] (first compound 8 µM), 0.574. In addition, the relative viability in assay [4] (first compound 0.08 µM) is 0.859; in assay [4] (first compound 0.8 µM), 0.651; in assay [4] (first compound 2.53 µM), 0.711; in assay [4] (first compound 8 µM), 0.316; in assay [5] (first compound 0.08 µM), 0.225; in assay [5] (first compound 0.8 µM), 0.113. In addition, the relative viability in assay [5] (first compound 2.53 µM) was determined as 0.14; in assay [5] (first compound 8 µM), 0.13.

With NCI-H1993, the relative viability in assay [1] (0.08 µM) was found to be 1.18; in assay [1] (0.8 µM), 0.756; in assay [1] (2.53 µM), 0.908; in assay [1] (8 µM), 0.696; in assay [2] (first compound 0.08 µM), 0.837; in assay [2] (first compound 0.8 µM), 0.789. Also, the relative viability in assay [2] (first compound 2.53 µM) was determined as 0.848; in assay [2] (first compound 8 µM), 0.808; in assay [3] (first compound 0.08 µM) it was 0.958; in assay [3] (first compound 0.8 µM), 0.57; in assay [3] (first compound 2.53 µM) it was 0.93; in assay [3] (first compound 8 µM), 0.296. Also, the relative viability in assay [4] (first compound 0.08 µM) was 0.856; in assay [4] (first compound 0.8 µM), 0.711; in assay [4] (first compound 2.53 µM), 0.727; in assay [4] (first compound 8 µM) it was 0.542; in assay [5] (first compound 0.08 µM), 0.486; in assay [5] (first compound 0.8 µM), 0.43. For the same cell line, the relative viability came out at 0.51 in assay [5] (first compound 2.53 µM) and 0.467 in assay [5] (first compound 8 µM).

Take ChaGo-K-1: the relative viability in assay [1] (0.08 µM) stood at 1.06; in assay [1] (0.8 µM), 0.976; in assay [1] (2.53 µM) it was 1.06; in assay [1] (8 µM) it was 0.961; in assay [3] (first compound 0.08 µM), 0.86; in assay [3] (first compound 0.8 µM), 0.856. The relative viability in assay [3] (first compound 2.53 µM) is 0.908; in assay [3] (first compound 8 µM), 0.911; in assay [4] (first compound 0.08 µM) it was 0.795; in assay [4] (first compound 0.8 µM), 0.712; in assay [4] (first compound 2.53 µM) it was 0.875; in assay [4] (first compound 8 µM), 0.853. Also, the relative viability in assay [5] (first compound 0.08 µM) was 0.972; in assay [5] (first compound 0.8 µM), 0.814; in assay [5] (first compound 2.53 µM), 0.941; in assay [5] (first compound 8 µM), 0.956.

For the cell line HCC-15, the relative viability in assay [1] (0.08 µM) worked out at 1.06; in assay [1] (0.8 µM) it was 0.953; in assay [1] (2.53 µM), 1.07; in assay [1] (8 µM), 1.04; in assay [2] (first compound 0.08 µM) it was 0.879; in assay [2] (first compound 0.8 µM), 0.88. For the same cell line, the relative viability was determined as 0.879 in assay [2] (first compound 2.53 µM); 0.947 in assay [2] (first compound 8 µM); 1.25 in assay [3] (first compound 0.08 µM); 1.2 in assay [3] (first compound 0.8 µM); 1.13 in assay [3] (first compound 2.53 µM); 1.25 in assay [3] (first compound 8 µM). In addition, the relative viability in assay [4] (first compound 0.08 µM) is 0.975; in assay [4] (first compound 0.8 µM) it was 0.74; in assay [4] (first compound 2.53 µM), 0.925; in assay [4] (first compound 8 µM) it was 0.833; in assay [5] (first compound 0.08 µM), 0.401; in assay [5] (first compound 0.8 µM) it was 0.388. The relative viability in assay [5] (first compound 2.53 µM) was determined as 0.409; in assay [5] (first compound 8 µM) it was 0.417.

As for NCI-H2009, the relative viability in assay [1] (0.08 µM) was found to be 1.04; in assay [1] (0.8 µM) it was 0.946; in assay [1] (2.53 µM), 1.06; in assay [1] (8 µM), 1.19; in assay [2] (first compound 0.08 µM) it was 1.02; in assay [2] (first compound 0.8 µM), 0.956. The relative viability came out at 0.931 in assay [2] (first compound 2.53 µM); 1.13 in assay [2] (first compound 8 µM); 0.794 in assay [4] (first compound 0.08 µM); 0.7 in assay [4] (first compound 0.8 µM); 0.756 in assay [4] (first compound 2.53 µM); 0.821 in assay [4] (first compound 8 µM). In addition, the relative viability in assay [5] (first compound 0.08 µM) was determined as 0.328; in assay [5] (first compound 0.8 µM), 0.234; in assay [5] (first compound 2.53 µM), 0.258; in assay [5] (first compound 8 µM), 0.239.

Take SK-LU-1: the relative viability in assay [1] (0.08 µM) stood at 1.22; in assay [1] (0.8 µM) it was 0.969; in assay [1] (2.53 µM), 1.03; in assay [1] (8 µM) it was 1.08; in assay [2] (first compound 0.08 µM), 0.937; in assay [2] (first compound 0.8 µM) it was 0.785. Besides, the relative viability was 0.996 in assay [2] (first compound 2.53 µM); 0.969 in assay [2] (first compound 8 µM); 0.946 in assay [4] (first compound 0.08 µM); 0.722 in assay [4] (first compound 0.8 µM); 0.776 in assay [4] (first compound 2.53 µM); 0.657 in assay [4] (first compound 8 µM). For the same cell line, the relative viability in assay [5] (first compound 0.08 µM) worked out at 0.575; in assay [5] (first compound 0.8 µM), 0.418; in assay [5] (first compound 2.53 µM), 0.717; in assay [5] (first compound 8 µM) it was 0.422.
